Here are results for three compounds from ChEMBL document CHEMBL1201862, “PubChem BioAssay data set” (2004).

The nature of experiment [1]: inhibitors of firefly luciferase expression or activity, dose response, H4 neuroglioma cells, luminescence (AID 1990). The experiment is classed as functional, cell-based.
Experiment [2] is described as follows: Shn3 3'UTR reporter inhibitors, dose response, cell-based, Clone20 osteoblasts, firefly luciferase, cherry-picked (AID 624132).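 Further: firefly luciferase luminescence from reporter carrying the Shn3 3'UTR in osteoblasts.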 Type of experiment: functional.
Experiment [3] concerns the target T1, Replicative DNA helicase DnaB (Mycobacterium tuberculosis, UniProt P9WMR3).
T1 sequence (P9WMR3 whole entry): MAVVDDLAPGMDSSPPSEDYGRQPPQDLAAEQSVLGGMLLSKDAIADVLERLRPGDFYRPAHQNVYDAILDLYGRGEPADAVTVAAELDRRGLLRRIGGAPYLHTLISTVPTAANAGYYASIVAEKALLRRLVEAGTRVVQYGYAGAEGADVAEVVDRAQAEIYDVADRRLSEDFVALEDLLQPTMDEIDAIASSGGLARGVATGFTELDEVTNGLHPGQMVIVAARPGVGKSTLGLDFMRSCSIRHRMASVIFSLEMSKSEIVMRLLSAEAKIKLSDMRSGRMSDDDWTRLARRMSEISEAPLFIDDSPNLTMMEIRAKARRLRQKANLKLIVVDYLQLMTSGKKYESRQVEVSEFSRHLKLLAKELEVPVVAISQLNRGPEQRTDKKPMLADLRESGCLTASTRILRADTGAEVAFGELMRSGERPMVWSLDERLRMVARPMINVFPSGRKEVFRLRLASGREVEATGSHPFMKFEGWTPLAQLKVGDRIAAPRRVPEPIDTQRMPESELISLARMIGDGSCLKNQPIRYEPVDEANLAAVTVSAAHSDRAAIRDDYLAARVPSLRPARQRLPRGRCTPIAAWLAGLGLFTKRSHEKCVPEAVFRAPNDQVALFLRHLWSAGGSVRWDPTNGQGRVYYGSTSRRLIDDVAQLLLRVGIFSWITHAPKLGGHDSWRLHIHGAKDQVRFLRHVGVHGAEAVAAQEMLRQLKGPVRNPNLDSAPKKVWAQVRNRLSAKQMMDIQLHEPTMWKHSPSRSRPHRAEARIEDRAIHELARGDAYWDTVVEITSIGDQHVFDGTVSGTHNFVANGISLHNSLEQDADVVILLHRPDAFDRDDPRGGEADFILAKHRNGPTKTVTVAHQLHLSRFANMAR
In words: DnaB intein splicing inhibitors, dose response, biochemical, cell-free fluorescence (AID 449749). Type of experiment: functional.

The nature of experiment [4]: cytotoxicity toward DRD oncogenic fibroblasts, dose response, cell-based, non-viral oncogenic, luminescence (AID 1934). Type of experiment: functional. The conditions noted are these: Homo sapiens.
The target of experiment [5] is Tyrosine-protein kinase receptor TYRO3 (Homo sapiens, UniProt Q06418). The experiment is classed as functional.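 Further: TYRO3 value obtained as one member of a kinome-wide profiling panel.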
Experiment [6] addresses Tyrosine-protein kinase Lck (Homo sapiens, UniProt P06239). Type of experiment: functional.
In experiment [7] the target is Serine/threonine-protein kinase PLK4 (Homo sapiens, UniProt O00444). Type of experiment: functional.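 Further: PLK4 measured as one member of a kinome-wide kinase profiling panel.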
In experiment [8] the target is MAP/microtubule affinity-regulating kinase 3 (Homo sapiens, UniProt P27448). The experiment is classed as functional.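 Further: MARK3 affinity measured as one member of a kinome panel.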
The target in experiment [9] is Calcium/calmodulin-dependent protein kinase type 1 (Homo sapiens, UniProt Q14012). The experiment is classed as functional.
The target in experiment [10] is cGMP-dependent protein kinase 1 (Homo sapiens, UniProt Q13976). The experiment is classed as functional.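 Further: value from a kinome panel screen with PRKG1 as the panel member.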
The target in experiment [11] is Mitogen-activated protein kinase 12 (Homo sapiens, UniProt P53778). The experiment is classed as functional.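 Further: measured as one member of a kinome-wide kinase profiling panel.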
Experiment [12] deals with Dual specificity tyrosine-phosphorylation-regulated kinase 4 (Homo sapiens, UniProt Q9NR20). The experiment is classed as functional.
The target of experiment [13] is Mitogen-activated protein kinase kinase kinase kinase 2 (Homo sapiens, UniProt Q12851). Type of experiment: functional.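 Further: measured as one member of a kinome-wide kinase panel, with MAP4K2 as the panel entry.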
Experiment [14] has as its target Serine/threonine-protein kinase D2 (Homo sapiens, UniProt Q9BZL6). The experiment is classed as functional.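 Further: measured against PRKD2 as one member of a kinome-wide kinase profiling panel.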
In experiment [15] the target is Dual specificity protein kinase CLK2 (Homo sapiens, UniProt P49760). The experiment is classed as functional.
Experiment [16] has as its target Homeodomain-interacting protein kinase 2 (Homo sapiens, UniProt Q9H2X6). The experiment is classed as functional.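 Further: measured within a kinome-wide kinase profiling panel, HIPK2 being one panel member.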
The target of experiment [17] is Tyrosine-protein kinase SYK (Homo sapiens, UniProt P43405). The experiment is classed as functional.
In experiment [18] the target is Homeodomain-interacting protein kinase 4 (Homo sapiens, UniProt Q8NE63). The experiment is classed as functional.
Experiment [19] has as its target Casein kinase I isoform delta (Homo sapiens, UniProt P48730). The experiment is classed as functional.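 Further: measured as one member (CSNK1D) of a kinome panel.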
In experiment [20] the target is Calcium/calmodulin-dependent protein kinase type II subunit gamma (Homo sapiens, UniProt Q13555). Type of experiment: functional.
Experiment [21] has as its target Cell division cycle 7-related protein kinase (Homo sapiens, UniProt O00311). The experiment is classed as functional.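 Further: value obtained from a kinome-wide kinase panel.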
Experiment [22] deals with Macrophage-stimulating protein receptor (Homo sapiens, UniProt Q04912). In words: Navigating the Kinome. Panel member name: MST1R. Type of experiment: functional.
Experiment [23] has as its target Protein kinase C gamma type (Homo sapiens, UniProt P05129). Type of experiment: functional.
Another experiment addresses LIM domain kinase 1 (Homo sapiens, UniProt P53667). The experiment is described as follows: Navigating the Kinome. Panel member name: LIMK1. Type of experiment: functional.
Experiment [24] deals with Tyrosine-protein kinase receptor UFO (Homo sapiens, UniProt P30530). The experiment is classed as functional.
In experiment [25] the target is Serine/threonine-protein kinase 17A (Homo sapiens, UniProt Q9UEE5). Type of experiment: functional.
Experiment [26] deals with Mitogen-activated protein kinase 1 (Homo sapiens, UniProt P28482). The experiment is classed as functional.
For experiment [27], the target named is Serine/threonine-protein kinase MRCK alpha (Homo sapiens, UniProt Q5VT25). Type of experiment: functional.
For experiment [28], the target named is Protein kinase C delta type (Homo sapiens, UniProt Q05655). The experiment is classed as functional.
Experiment [29] has as its target Ribosomal protein S6 kinase beta-1 (Homo sapiens, UniProt P23443). Type of experiment: functional.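 Further: measured as one member of a kinome-wide profiling panel.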
The target in experiment [30] is Tyrosine-protein kinase Fer (Homo sapiens, UniProt P16591). Type of experiment: functional.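 Further: FER tested as one member of a kinome panel.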
The next experiment addresses Albumin (Bos taurus, UniProt P02769). The experiment is described as follows: Counterscreen for inhibitors of T-cell receptor (TCR)-CD3 interaction: Fluorescence-based biochemical high throughput dose response assay to identify inhibitors of T-cell receptor (TCR)-CD3 interaction using a TAMRA-labeled BSA probe. Type of experiment: functional.
A further experiment has as its target Troponin, cardiac muscle (Homo sapiens, UniProt P19429+P45379+P63316). In words: inhibitors of cardiac thin filament calcium sensitivity, dose response, biochemical, fluorescence, cardiac regulated thin filaments, triplicate IC50 (AID 504742). The experiment is classed as protein-complex assay.

Each structure is given as a SMILES string. Calls of active or inactive are those of the source. A value given as a limit tells only on which side of the number the result lay.

For the compound `COC(=O)C1CN(C#N)N(c2ccc(Cl)cc2)C12c1ccccc1-c1ccccc12` (stereo not drawn), the EC50 is > 120 µM (not active) in experiment [1] and 3.75 µM (active) in [4]. The half-maximal activity concentration (AC50) in experiment [2] is < 0.26 µM (active); in [3], 3.16 µM (active).

For `Nc1noc2cccc(-c3cccc(O)c3)c12`, the Ki in experiment [5] is > 7.94 µM (inactive); in experiment [6], > 25.1 µM (inactive); in experiment [7], 2 µM (active); in experiment [8], > 6.31 µM (inactive); in experiment [9], > 5.01 µM (inactive); in [10], > 2 µM (inactive). The Ki in experiment [11] is > 6.31 µM (inactive); in experiment [12], > 7.94 µM (inactive); in experiment [13], 15.8 µM (active); in experiment [14], 7.94 µM (active); in [15] it was > 20 µM (inactive); in [16], > 3.16 µM (inactive). Further, the Ki in experiment [17] was > 1.58 µM (inactive); in experiment [18], > 7.94 µM (inactive); in experiment [19] it was 6.31 µM (active); in [20], 6.31 µM (active); in experiment [21], > 1.26 µM (inactive); in [22], 20 µM (active). Further, the Ki in experiment [23] was > 7.94 µM (inactive); at LIM domain kinase 1 it was 2.51 µM (active); in experiment [24] it was > 2 µM (inactive); in experiment [25], > 3.98 µM (inactive); in experiment [26], > 7.94 µM (inactive); in experiment [27], > 10 µM (inactive). Further, the Ki in [28] was > 7.94 µM (inactive); in experiment [29], 0.126 µM (active); in experiment [30], > 1.58 µM (inactive).

Take `O=C1NC(=S)S/C1=C\C=C\c1ccc([N+](=O)[O-])o1`: the IC50 was > 94.1 µM (inactive) on Albumin and 40.2 µM (inactive) on Troponin, cardiac muscle.
